From ChEMBL document CHEMBL1201862, “PubChem BioAssay data set” (2004)
The source made the active and inactive calls.

Assays:
Cytochrome P450 1A2 = molecular target: T1, Cytochrome P450 1A2 (Homo sapiens, UniProt P05177);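 note: PubChem cytochrome P450 panel assay, CYP1A2 panel member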
T1 sequence (P05177 whole entry): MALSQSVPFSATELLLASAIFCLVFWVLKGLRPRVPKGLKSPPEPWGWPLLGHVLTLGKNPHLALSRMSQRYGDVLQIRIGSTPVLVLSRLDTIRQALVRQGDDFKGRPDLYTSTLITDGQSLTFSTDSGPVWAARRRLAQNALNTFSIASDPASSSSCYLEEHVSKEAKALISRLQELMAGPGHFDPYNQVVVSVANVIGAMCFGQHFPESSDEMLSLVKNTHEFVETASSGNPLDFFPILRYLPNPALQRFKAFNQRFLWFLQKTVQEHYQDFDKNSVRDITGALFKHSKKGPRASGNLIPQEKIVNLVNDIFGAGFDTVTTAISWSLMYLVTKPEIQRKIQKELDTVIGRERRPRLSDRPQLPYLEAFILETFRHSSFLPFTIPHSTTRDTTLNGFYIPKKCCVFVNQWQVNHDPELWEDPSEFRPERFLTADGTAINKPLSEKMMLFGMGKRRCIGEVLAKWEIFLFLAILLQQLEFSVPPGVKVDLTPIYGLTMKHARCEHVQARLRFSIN

Cytochrome P450 2C9 = Cytochrome P450 2C9 (Homo sapiens, UniProt P11712)
H9c2 = assay: cells; format: functional, cell-based; details: Rattus norvegicus, H9c2, Myocardium
[1] = molecular target: T2, Heat shock factor protein 1 (Mus musculus, UniProt P38532); assay: decrease of HSF1-responsive luciferase luminescence – cell-based, NIH3T3, dose retest, confirmation (AID 2382); format: functional;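 note: NIH3T3 fibroblasts with HSF1-driven luciferase reporter stressed by proteasome inhibitor MG132; luminescence from HSF1-driven luciferase expression after 8 hours of MG132 stress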
T2 sequence (P38532 whole entry): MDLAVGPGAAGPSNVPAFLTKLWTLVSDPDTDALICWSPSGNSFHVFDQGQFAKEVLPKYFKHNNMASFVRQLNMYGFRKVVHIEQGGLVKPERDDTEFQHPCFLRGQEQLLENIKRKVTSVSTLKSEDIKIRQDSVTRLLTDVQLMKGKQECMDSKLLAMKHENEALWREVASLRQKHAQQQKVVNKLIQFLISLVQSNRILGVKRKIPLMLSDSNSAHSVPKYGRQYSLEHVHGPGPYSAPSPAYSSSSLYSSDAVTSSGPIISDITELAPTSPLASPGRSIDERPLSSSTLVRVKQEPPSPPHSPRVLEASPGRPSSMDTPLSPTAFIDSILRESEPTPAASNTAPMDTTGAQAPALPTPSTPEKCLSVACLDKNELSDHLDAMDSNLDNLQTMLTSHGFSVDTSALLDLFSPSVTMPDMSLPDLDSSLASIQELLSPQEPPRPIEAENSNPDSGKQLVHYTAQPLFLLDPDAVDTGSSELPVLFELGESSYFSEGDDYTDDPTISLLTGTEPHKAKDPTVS

[2] = molecular target: T3, Rac GTPase-activating protein 1 (Homo sapiens, UniProt Q9H0H5); assay: blockers of MgcRacGAP-driven Rac1 GTP hydrolysis – biochemical, ADP Hunter fluorescence, primary and confirmatory, confirmation (AID 624330); format: functional
T3 sequence (Q9H0H5 whole entry): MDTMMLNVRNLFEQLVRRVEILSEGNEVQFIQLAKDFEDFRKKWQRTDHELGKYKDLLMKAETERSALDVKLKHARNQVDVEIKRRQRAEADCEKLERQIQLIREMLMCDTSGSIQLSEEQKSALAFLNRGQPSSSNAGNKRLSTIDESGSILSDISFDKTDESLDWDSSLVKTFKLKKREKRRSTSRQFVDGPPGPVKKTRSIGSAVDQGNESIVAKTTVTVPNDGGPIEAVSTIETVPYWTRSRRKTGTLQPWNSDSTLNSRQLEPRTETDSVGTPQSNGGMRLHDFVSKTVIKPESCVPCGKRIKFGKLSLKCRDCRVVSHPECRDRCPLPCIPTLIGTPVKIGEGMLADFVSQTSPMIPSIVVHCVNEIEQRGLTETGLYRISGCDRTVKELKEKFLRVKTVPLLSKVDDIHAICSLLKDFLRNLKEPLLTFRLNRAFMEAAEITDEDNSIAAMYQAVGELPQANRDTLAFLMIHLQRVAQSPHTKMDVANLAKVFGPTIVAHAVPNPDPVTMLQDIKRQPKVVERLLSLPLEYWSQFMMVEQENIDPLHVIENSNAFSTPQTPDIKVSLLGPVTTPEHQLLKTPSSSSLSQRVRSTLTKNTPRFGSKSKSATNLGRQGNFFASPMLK

cells = format: functional
[3] = NIH3T3 cell viability loss – ATP luminescence, mouse fibroblasts, counter-screen, dose response (AID 2010); format: functional, cell-based;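 note: cells exposed to compound for about 90 hours before reading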
[4] = Trypanosoma cruzi growth suppression in host cells – NIH3T3 host cells, beta-gal luminescence, confirmation (AID 2044); format: functional, cell-based;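 note: intracellular parasites grown in NIH/3T3 mouse fibroblasts as host cells; luminescent beta-galactosidase reporter signal from transgenic T. cruzi replicating inside host cells; inhibitors lower the luminescence signal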
[5] = Luminescence Cell-Based Dose Retest to Confirm Inhibitors of Cancer Stem Cells. [Related pubchem assays (depositor defined):AID2717, AID2721]; format: functional; details: Homo sapiens
INS1 = assay: INS-1E survival protection against cytokine death – cell-based, luminescence, retest, dose response (AID 449756); format: functional; details: Rattus norvegicus;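 note: cell death triggered by IL-1 beta plus TNF-alpha plus IFN-gamma mixture; protective hits raise ATP signal compared with cytokine alone wells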
Cytochrome P450 3A4 = Cytochrome P450 3A4 (Homo sapiens, UniProt P08684);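 note: CYP3A4 tested as one member of a cytochrome P450 panel screen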
Cytochrome P450 2C19 = Cytochrome P450 2C19 (Homo sapiens, UniProt P33261); assay: Cytochrome panel assay with activity outcomes. Panel member name: p450-cyp2c19 Compounds with AC50 equal or less than 10 uM are considered active; format: functional; details: read-out: AC50
Cytochrome P450 2D6 = Cytochrome P450 2D6 (Homo sapiens, UniProt P10635);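 note: CYP2D6 member of a cytochrome P450 panel assay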
Chain of Cytochrome P450 2D6 (P10635 whole entry): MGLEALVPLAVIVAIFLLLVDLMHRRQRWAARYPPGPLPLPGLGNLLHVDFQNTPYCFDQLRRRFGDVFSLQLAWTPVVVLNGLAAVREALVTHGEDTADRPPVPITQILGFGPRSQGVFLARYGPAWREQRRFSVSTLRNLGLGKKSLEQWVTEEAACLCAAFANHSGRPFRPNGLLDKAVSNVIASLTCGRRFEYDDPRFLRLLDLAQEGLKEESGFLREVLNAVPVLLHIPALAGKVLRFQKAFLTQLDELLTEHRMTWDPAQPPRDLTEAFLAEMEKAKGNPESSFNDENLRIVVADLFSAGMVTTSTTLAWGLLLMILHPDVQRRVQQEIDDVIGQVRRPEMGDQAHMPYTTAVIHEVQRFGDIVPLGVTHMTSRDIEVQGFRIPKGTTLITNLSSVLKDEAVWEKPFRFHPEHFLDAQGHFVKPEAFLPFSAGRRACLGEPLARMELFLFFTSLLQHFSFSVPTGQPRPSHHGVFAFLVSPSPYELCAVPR

Chain of Cytochrome P450 2C19 (P33261 whole entry): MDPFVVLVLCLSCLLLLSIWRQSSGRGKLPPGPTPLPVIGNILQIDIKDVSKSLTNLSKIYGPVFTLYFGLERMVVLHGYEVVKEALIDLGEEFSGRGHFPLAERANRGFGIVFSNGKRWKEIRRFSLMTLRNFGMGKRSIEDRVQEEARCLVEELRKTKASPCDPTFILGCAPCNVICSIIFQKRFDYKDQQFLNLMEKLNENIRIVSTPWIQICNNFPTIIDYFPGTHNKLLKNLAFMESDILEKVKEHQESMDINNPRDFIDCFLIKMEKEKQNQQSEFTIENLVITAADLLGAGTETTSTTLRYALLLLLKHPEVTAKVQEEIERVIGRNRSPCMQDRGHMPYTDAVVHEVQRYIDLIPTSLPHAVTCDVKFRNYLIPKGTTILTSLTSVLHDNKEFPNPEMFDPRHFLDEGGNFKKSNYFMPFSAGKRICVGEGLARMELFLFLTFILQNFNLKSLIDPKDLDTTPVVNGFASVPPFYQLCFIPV
Chain of Cytochrome P450 2C9 (P11712 whole entry): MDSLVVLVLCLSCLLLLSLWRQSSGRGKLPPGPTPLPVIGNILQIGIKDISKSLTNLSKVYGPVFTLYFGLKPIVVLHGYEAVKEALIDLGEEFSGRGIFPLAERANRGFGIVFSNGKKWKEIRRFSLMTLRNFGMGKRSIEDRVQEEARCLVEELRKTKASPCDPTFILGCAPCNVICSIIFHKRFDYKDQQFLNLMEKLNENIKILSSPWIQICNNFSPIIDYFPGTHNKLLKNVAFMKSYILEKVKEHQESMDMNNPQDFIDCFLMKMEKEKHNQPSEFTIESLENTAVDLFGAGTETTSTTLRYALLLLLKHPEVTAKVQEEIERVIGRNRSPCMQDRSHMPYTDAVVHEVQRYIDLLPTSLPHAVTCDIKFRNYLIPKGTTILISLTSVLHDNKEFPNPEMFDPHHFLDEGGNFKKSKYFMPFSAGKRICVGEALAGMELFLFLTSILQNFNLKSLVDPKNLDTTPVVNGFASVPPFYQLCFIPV
Chain of Cytochrome P450 3A4 (P08684 whole entry): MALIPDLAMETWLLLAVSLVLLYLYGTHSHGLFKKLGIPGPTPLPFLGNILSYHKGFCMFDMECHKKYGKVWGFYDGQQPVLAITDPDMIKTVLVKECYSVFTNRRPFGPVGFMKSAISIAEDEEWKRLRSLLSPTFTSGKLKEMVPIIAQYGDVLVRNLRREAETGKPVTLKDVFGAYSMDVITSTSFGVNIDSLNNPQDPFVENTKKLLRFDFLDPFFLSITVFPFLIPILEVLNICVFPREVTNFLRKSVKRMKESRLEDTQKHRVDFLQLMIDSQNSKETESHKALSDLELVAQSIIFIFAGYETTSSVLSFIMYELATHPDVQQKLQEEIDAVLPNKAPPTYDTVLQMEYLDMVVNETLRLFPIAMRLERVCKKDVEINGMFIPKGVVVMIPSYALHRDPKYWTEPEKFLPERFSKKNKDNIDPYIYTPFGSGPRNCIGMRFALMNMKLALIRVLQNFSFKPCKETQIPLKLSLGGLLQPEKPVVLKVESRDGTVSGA

## CCN(CC)C(=O)c1ccc(O)c(OC)c1
Cytochrome P450 1A2
  AC50: 12.6 µM (inconclusive)

## Cc1nnc(NC(=O)c2cccc(NC(=O)C(C)C)c2)s1
Cytochrome P450 2C9
  AC50: 25.1 µM (inconclusive)
Cytochrome P450 1A2
  AC50: 39.8 µM (inconclusive)

## CC(C)(C)OC(=O)CNC(=O)c1[nH]cnc1C(=O)NC(c1ccccc1)c1ccccc1
H9c2
  IC50: > 79 µM (inactive)

## CCN(CC)C(=O)CSc1nc(O)c2ccccc2n1
H9c2
  IC50: > 79 µM (inactive)

## CC1(C)CC(=O)C2=C(C1)N(c1ccc(F)cc1)C(=O)CC2c1ccccc1 (configuration not stated)
[1]
  EC50: > 195 µM (not active)

## COc1cc(/C=C/c2n[nH]c(-c3ccccc3O)n2)cc(OC)c1OC
H9c2
  IC50: > 79 µM (inactive)

## COc1cc(OC)c(CN2CCCN(C)CC2)cc1Br
[2]
  IC50: 107 µM (active)

## Cc1ccc(NC(=O)CNCCCN2CCOCC2)cc1S(=O)(=O)N1CCCCC1
[2]
  IC50: 76.5 µM (active)

## COc1nc(Nc2ccc(O)cc2)nc(OC(C(F)(F)F)C(F)(F)F)n1
[2]
  IC50: 35.1 µM (active)

## Cn1cc(/C=C(\C#N)C(=O)Nc2cccc([N+](=O)[O-])c2)c2ccccc21
[1]
  EC50: 4.14 µM (active)

## COc1ccc2cc3cc(C(=O)Nc4cc(OC)c(OC)c(OC)c4)oc3nc2c1
H9c2
  IC50: > 79 µM (inactive)

## O=c1ccc(NS(=O)(=O)c2ccc(Cl)cc2)cn1Cc1ccc(Cl)c(Cl)c1
Cytochrome P450 1A2
  AC50: 28.2 µM (inconclusive)

## Cc1ccc(C)c(NC(=O)c2cc([N+](=O)[O-])cc([N+](=O)[O-])c2)c1
cells
  IC50: 10.1 µM (active)

## C=C1SC(Nc2c(C)cc(C)cc2C)=NC12CCCCC2
[1]
  EC50: > 195 µM (not active)
[3]
  EC50: > 60 µM (not active)
[4]
  EC50: 0.561 µM (active)

## Cc1ccc(C(=O)N2N=C(c3ccc(Br)cc3)CC2c2ccccc2O)cc1 (configuration not stated)
[5]
  AC50: 3.63 µM (active)
INS1
  AC50: 7.42 µM (active)
[3]
  EC50: 13.6 µM (active)
[4]
  EC50: 2.15 µM (active)

## COc1cc(N)ccc1NC(=O)c1cccs1
[2]
  IC50: 106 µM (active)

## Cc1cccc(C(=O)O)c1C[C@H]1NCC[C@H]2c3ccccc3N[C@@H]12
Cytochrome P450 1A2
  AC50: 0.0631 µM (inconclusive)

## CCn1nnc(NC(=O)COc2ccc(C3CCCCC3)cc2)n1
cells
  IC50: 18.4 µM (active)

## CC(=O)COc1ccccc1OC(=O)c1ccco1
[1]
  EC50: > 195 µM (not active)

## COc1ccc2nc(NC(=O)CN3CCOCC3)sc2c1
[1]
  EC50: > 195 µM (not active)

## CN(Cc1ccccc1)C(=O)C1CCCN(Cc2ccc(Cl)cc2)C1 (configuration not stated)
[2]
  IC50: 161 µM (active)

## NC(=O)CC(NC(=O)Cc1ccc(Br)cc1)c1ccc(N2CCC(Cc3ccccc3)CC2)c([N+](=O)[O-])c1 (configuration not stated)
[5]
  AC50: 12.3 µM (active)

## CCNc1ncc2nc(-c3ccccc3)c(=O)n(CCc3ccccc3)c2n1
Cytochrome P450 3A4
  AC50: 15.8 µM (inconclusive)
Cytochrome P450 2C9
  AC50: 1.26 µM (inconclusive)
Cytochrome P450 1A2
  AC50: 12.6 µM (inconclusive)

## CC1(c2ccccc2)NC(=O)N(CC(=O)Nc2cccc(/C=C/c3ccccn3)c2)C1=O (configuration not stated)
H9c2
  IC50: > 79 µM (inactive)

## COC(=O)[C@@]1(Cc2ccc(F)cc2)[C@H]2c3cc(C(=O)N(C)C)n(C)c3C[C@H]2CN1C(=O)c1ccccc1
Cytochrome P450 2C19
  AC50: 25.1 µM (inconclusive)
Cytochrome P450 1A2
  AC50: 31.6 µM (inconclusive)

## CN(C)c1cc(=O)n2c(n1)SCCC2
Cytochrome P450 2C19
  AC50: 28.2 µM (inconclusive)
Cytochrome P450 1A2
  AC50: 12.6 µM (inconclusive)

## OCC#CCSc1nnc(-c2ccc(Br)cc2)o1
cells
  IC50: 5.2 µM (active)

## COc1cccc2cc(C(=O)OC3CCN(C)CC3)c(=O)oc12
[1]
  EC50: > 195 µM (not active)

## Brc1c(-c2ccc3c(c2)OCO3)nc2ncccn12
cells
  IC50: 4.7 µM (active)

## COc1ccc(-n2c(=O)c(CCc3ccccc3)nc3cncnc32)cc1
Cytochrome P450 2C9
  AC50: 20 µM (inconclusive)
Cytochrome P450 1A2
  AC50: 25.1 µM (inconclusive)

## COc1ccc(CNc2ncc(-c3ccc(F)cc3)n2C)cc1OC
[2]
  IC50: 56.8 µM (active)

## C=CCNC(=S)N1CCN(Cc2ccc3c(c2)OCO3)CC1
[2]
  IC50: 158 µM (active)

## CS(=O)(=O)N(CC(=O)NCc1ccccc1)C1CCCCC1
[1]
  EC50: > 195 µM (not active)

## O=C1CCC(=O)N1CNc1ccccn1
[1]
  EC50: > 195 µM (not active)

## CCOC(=O)c1c(NC(=O)CNC2CCCc3ccccc32)sc(C(N)=O)c1C (configuration not stated)
[1]
  EC50: 25 µM (active)

## Cc1cc(OCC(=O)N2CCOCC2)cc2oc(=O)c3ccccc3c12
H9c2
  IC50: > 79 µM (inactive)

## O=C(NCc1ccc2c(c1)OCO2)c1cc2c(s1)CS(=O)(=O)C2
[1]
  EC50: > 195 µM (not active)

## CCCCOc1ccc(N2CC(C(=O)NCCc3ccc(OC)c(OC)c3)CC2=O)cc1 (configuration not stated)
[1]
  EC50: > 195 µM (not active)

## CCOc1ccc(-n2ccnc2SCC(=O)Nc2nnc(CC)s2)cc1
Cytochrome P450 1A2
  AC50: 20 µM (inconclusive)

## CCC1C=CC=CC[C@H](C)[C@@H](O)[C@](C)(O)C(=O)[C@@H](C)[C@H](O)[C@@H](C)C(=O)[C@H](C)[C@@H](O)[C@H](C)C=CC(=O)OC2[C@@H](C)C(CC1)OC1(CC[C@@H](C)C(C[C@H](C)O)O1)[C@@H]2C (some centres not stated)
[5]
  AC50: 2.9 µM (active)

## CCc1cccc(NC(=O)COC(=O)/C=C/c2cccs2)c1
[1]
  EC50: > 195 µM (not active)

## CCCCN=C(NNc1ccc(Br)cc1)C(=O)OCC
[5]
  AC50: 2.89 µM (active)

## CCCC(=O)NC(Nc1ccccc1F)C(Cl)(Cl)Cl (configuration not stated)
Cytochrome P450 3A4
  AC50: 14.1 µM (inconclusive)
Cytochrome P450 1A2
  AC50: 22.4 µM (inconclusive)

## CCOC(=O)c1nn(-c2ccccc2)c2nc(Nc3ccccc3)cc(=O)n12
cells
  IC50: 5.99 µM (active)

## CN(C(=O)CSc1nc(O)c2c(n1)CCCC2)C1CCCCC1
H9c2
  IC50: 33.3 µM (inactive)

## CCOc1ncccc1C(=O)OCC(=O)N1CCc2ccccc21
cells
  IC50: 13.9 µM (active)

## COC(=O)COc1ccc2c(=O)c(-c3ccccc3OC)coc2c1
cells
  IC50: 5.9 µM (active)

## CNC(C)C(=O)NC(C(=O)N1CCCC1C(=O)NNc1ccccc1)C(C)C (configuration not stated)
[5]
  AC50: 2.17 µM (active)

## O=C(c1ccc(F)cc1)C1CCN(C(S)=Nc2ccccc2)CC1
Cytochrome P450 2D6
  AC50: 14.1 µM (inconclusive)
Cytochrome P450 2C19
  AC50: 7.08 µM (inconclusive)
Cytochrome P450 1A2
  AC50: 12.6 µM (inconclusive)

## C[C@@H]1CCCC(CC(=O)O)(CC(=O)O)C1
Cytochrome P450 1A2
  AC50: 0.631 µM (inconclusive)

## COc1cc(-c2cc3nc(NCCc4ccc(S(N)(=O)=O)cc4)ccn3n2)cc(OC)c1OC
H9c2
  IC50: > 79 µM (inactive)

## CC(=O)OCc1nc(O)c2c(C)c(C)sc2n1
H9c2
  IC50: > 79 µM (inactive)

## C/C(=N\NC(=O)c1nnn(-c2nonc2N)c1CN1CCc2ccccc21)c1ccccc1O
[5]
  AC50: 2.72 µM (active)
INS1
  AC50: 1.98 µM (active)

## CSc1ncnc2c1ncn2CCCNc1ccc(C)c(C)c1
[2]
  IC50: 207 µM (active)

## O=C(N/N=C/c1ccc(OC(=O)c2ccco2)cc1)c1ccccn1
cells
  IC50: 20.6 µM (active)

## Oc1ccccc1/C=N/C1=NN(c2cccc(C(F)(F)F)c2)CC1
[2]
  IC50: 16.9 µM (active)

## N[C@@H](CCCP(=O)(O)O)C(=O)O
Cytochrome P450 1A2
  AC50: 31.6 µM (inconclusive)
